The values that follow come from patent publication US20110178104A1, “Anti-Heparin Compounds” (POLYMEDIX INC., priority 2010, published 2011).

≈ marks a conversion by molar mass, not a printed value. Where “and” joins values, the source holds several entries; their conditions need not be identical. Equal entries are not always repeated. Where two headings read alike, the source gives them in different places.

The nature of data set [1]: Cytotoxicity colorimetric assay, HepG2. The data set is classed as cell-based, human. The note with it: human, HepG2 cells, one hour in serum-free media. Here is the method: (§1) This assay measures the bioreduction of a novel tetrazolium compound to a soluble formazan product by viable cells. HepG2 cells were seeded in 96 well plates at 3×10^4 cells/well in MEM medium with 10% fetal bovine serum (FBS) 24 hours prior to use. NIH/3T3 cells were seeded in 96 well plates at 2×10^4 cells/well in DMEM medium with 10% bovine calf serum (BCS) 24 hours prior to use. Cell monolayers were rinsed in serum-free media and incubated for one hour with test agent in serum-free media. After incubation, the media was replaced with serum supplemented media and live cells were measured using the Cell Titer 96 Aqueous […] Assay kit (Promega, Madison, Wis.). EC50 values were determined using a four parameter logistic equation: Y=Bottom+(Top-Bottom)/(1+10̂((LogEC50-X)*HillSlope)).

Data set [2] can be described thus: Cytotoxicity colorimetric assay, NIH/3T3. The note with it: mouse, NIH/3T3 cells, one hour in serum-free media. The data set is classed as cell-based, mouse. Here is the method:
as §1

A further data set has as its system Unfractionated heparin. The experiment in a line: aPTT clotting assay, UFH 0.4 U/mL in plasma (Example 10). The note with it: unfractionated heparin 0.4 U/mL in plasma; aPTT clotting. The data set is classed as biochemical. Here is the method:
aPTT clotting Assay: Unfractionated heparin was mixed with plasma at a final concentration of 0.4 U/mL (or concentration which increases aPTT time to between 120 and 300 seconds). […] The ACL Elite Hemostasis analyzer (Beckman Coulter™) was used to add aPTT reagent (HemosIL SynthASil) to supplemented plasma. Clotting was initiated by addition of CaCl2 and time to clot was recorded.

In the next data set the test system is enoxaparin. The experiment in a line: FXa amidolytic assay (Example 10), enoxaparin. The note with it: read-out: Enox FXa EC50; enoxaparin 0.1 ug/ml; human antithrombin, bovine Factor Xa.
Another data set relates to tinzaparin. Put plainly: FXa amidolytic assay (Example 10), tinzaparin. The note with it: read-out: Tinzap FXa EC50; tinzaparin 0.1 ug/ml; human antithrombin, bovine Factor Xa.
A further data set has as its system fondaparinux. The experiment in a line: FXa amidolytic assay (Example 10), fondaparinux. The note with it: for EC50: read-out: Fondap FXa EC50, fondaparinux 0.02 μg/mL, human antithrombin, bovine Factor Xa.
Data set [3] concerns isolated human erythrocytes. The experiment in a line: cells. The class given is cell-based. The note with it: Homo sapiens, Erythrocyte, 1 h, read-out: Hemolysis EC50. Put shortly: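 Pooled human red cells, washed and diluted from a 0.22% stock suspension in TBS pH 7.4, were shaken with two-fold dilutions (1000 to 0.48 µg/ml) for 1 h at 37 °C. Released hemoglobin in the supernatant was read at OD405. EC50 came from a four-parameter logistic fit, with melittin as positive control.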

The subject of a further data set is UFH. The experiment in a line: FXa amidolytic assay (Example 10), UFH. The note with it: read-out: Heparin FXa uM EC50; UFH 0.03 units/mL; human antithrombin, bovine Factor Xa.

Method for enoxaparin: (§2) Two μl of test agent are added (range between 0.01 and 23 ug/ml) and incubated for 5 minutes at 23° C. Bovine Factor Xa was added to a final concentration of 0.636 nkat/mL and incubated for a further 10 minutes at 23° C.
Method for fondaparinux: as §2
Method for tinzaparin: as §2

For the compound `COc1ccc(NC(=O)[C@H](CCCCN)NC(=O)c2cc(NC(=O)[C@H](CCCCN)NC(=O)c3cc(NC(=O)[C@H](CCCCN)NC(=O)c4cc(NC(=O)[C@@H](N)CCCCN)ccc4OC)ccc3OC)ccc2OC)cc1C(=O)O` [Compound 250], the 50% effective concentration (EC50) at 1 h in data set [1] and in data set [2] was over 1000 µg/mL in each case. The EC50 in the data set on Unfractionated heparin was 2730 nM; in the data set on enoxaparin, 3280 nM; in the data set on tinzaparin, 1290 nM; in the data set on fondaparinux, over 10000 nM.
As to `COc1ccc(NC(=O)[C@@H](CCCNC(=N)N)NC(=O)c2cc(NC(=O)[C@@H](CCCNC(=N)N)NC(=O)c3cc(NC(=O)[C@@H](CCCNC(=N)N)NC(=O)c4cc(NC(C)=O)ccc4OC)ccc3OC)ccc2OCC(=O)O)cc1C(=O)N[C@H](Cc1c[nH]c2ccccc12)C(=O)O` [Compound 306], the EC50 in data set [3] (human RBC, 1 hour at 37° C.) is about 1000 µg/mL (≈ 738 µM); in the data set on Unfractionated heparin, over 10000 nM; in the data set with UFH it was 0.236 µM; in the data set with enoxaparin it was 198 nM and 338 nM; in the data set with tinzaparin it was 199 nM and 367 nM. In addition, the EC50 at 1 h in data set [1] was about 1000 µg/mL (≈ 738 µM).
Take `COc1cc(OC)c(C(=O)N[C@H]2CC[C@H](NC(=O)c3cc(C(=O)N[C@H]4CC[C@H](NC(=O)c5cc(C(=O)NCCN)c(OC)cc5OC)CC4)c(OC)cc3OC)CC2)cc1C(=O)NCCN` [Compound 346]: the EC50 was over 1000 µg/mL in data set [3] (human RBC, 1 hour at 37° C.); 8810 nM in the data set with Unfractionated heparin; 0.772 µM in the data set with UFH; 198 nM in the data set with enoxaparin; 410 nM in the data set on tinzaparin; 146 nM with fondaparinux. Also, the EC50 at 1 h in data set [1] and in data set [2] was over 1000 µg/mL throughout.
As to `COc1cc(OC)c(C(=O)NC2CCC(NC(=O)c3cc(C(=O)NCCN)c(OC)cc3OC)CC2)cc1C(=O)O` (centres unmarked) [Compound 347], the EC50 at 1 h in data set [1] and in data set [2] was over 1000 µg/mL in each case. The 50% effective concentration (EC50) in the data set on Unfractionated heparin is over 10000 nM; with UFH, over 20 µM; in the data set with enoxaparin, over 5000 nM; in the data set with tinzaparin, over 5000 nM; in the data set on fondaparinux it was over 10000 nM.
As to `COc1ccc(NC(=O)[C@H](CCCCN)NC(=O)c2cc(NC(=O)[C@H](CCCCN)NC(=O)c3cc(NC(=O)[C@H](CCCCN)NC(=O)c4cc(NC(=O)[C@H](CCCCN)NC(=O)c5c[nH]c6ccccc56)ccc4OC)ccc3OC)ccc2OC)cc1C(N)=O` [Compound 349], the EC50 in data set [3] (human RBC, 1 hour at 37° C.) was over 1000 µg/mL; in the data set with Unfractionated heparin, 2020 nM; in the data set with UFH, 0.213 µM; in the data set with enoxaparin, 108 nM; in the data set on tinzaparin, 90 nM; with fondaparinux, 129 nM. The values for the EC50 at 1 h in data set [1] and in data set [2] were 236 µg/mL (≈ 186 µM) and 108 µg/mL (≈ 85.1 µM), respectively.
Turning to `COc1cc(OC)c(C(=O)N[C@H]2CC[C@H](NC(=O)c3cc(C(=O)N[C@H]4CC[C@H](NC(=O)c5cc(C(=O)NCCN)c(OC)cc5OC)CC4)c(OCC(N)=O)cc3OC)CC2)cc1C(=O)NCCN` [Compound 390], the EC50 was over 1000 µg/mL in data set [3] (human RBC, 1 hour at 37° C.); 2080 nM in the data set on Unfractionated heparin; 707 nM in the data set with enoxaparin; 708 nM with tinzaparin; 1280 nM with fondaparinux. In addition, the EC50 at 1 h in data set [1] was found to be 892 µg/mL (≈ 927 µM); in data set [2], 986 µg/mL (≈ 1020 µM).
As for `COc1cc(OC)c(C(=O)N[C@H]2CC[C@H](NC(=O)c3cccc(C(=O)N[C@H]4CC[C@H](NC(=O)c5cc(C(=O)NCCN)c(OC)cc5OC)CC4)n3)CC2)cc1C(=O)NCCN` [Compound 397], the EC50 in data set [3] (human RBC, 1 hour at 37° C.) is over 1000 µg/mL; in the data set on Unfractionated heparin it was 1150 nM; with enoxaparin, 985 nM; in the data set on tinzaparin, 955 nM; with fondaparinux it was 2630 nM. Moreover, the EC50 at 1 h in data set [1] was 616 µg/mL (≈ 717 µM); in data set [2], 408 µg/mL (≈ 475 µM).
Take `COc1cc(OC)c(C(=O)N[C@H]2CC[C@H](NC(=O)c3cccc(C(=O)N[C@H]4CC[C@H](NC(=O)c5cc(C(=O)NCCN)c(OC)cc5OC)CC4)c3)CC2)cc1C(=O)NCCN` [Compound 398]: the EC50 is over 1000 µg/mL in data set [3] (human RBC, 1 hour at 37° C.); 4770 nM with Unfractionated heparin; 2530 nM with enoxaparin; 2040 nM with tinzaparin; 13900 nM in the data set on fondaparinux. For the same compound, the EC50 at 1 h in data set [1] is 1090 µg/mL (≈ 1270 µM); in data set [2], over 1000 µg/mL.
In the case of `COc1cc(OC)c(C(=O)N[C@H]2CC[C@H](NC(=O)c3cncc(C(=O)N[C@H]4CC[C@H](NC(=O)c5cc(C(=O)NCCN)c(OC)cc5OC)CC4)c3)CC2)cc1C(=O)NCCN` [Compound 400], the EC50 is over 1000 µg/mL in data set [3] (human RBC, 1 hour at 37° C.); 5090 nM with Unfractionated heparin; 1220 nM with enoxaparin; 1180 nM in the data set with tinzaparin; 5510 nM with fondaparinux. Further, the EC50 at 1 h in data set [1] was 1300 µg/mL (≈ 1520 µM); in data set [2], over 1000 µg/mL.
For `COc1cc(OC)c(C(=O)N[C@H]2CC[C@H](NC(=O)c3cc(C(=O)N[C@H]4CC[C@H](NC(=O)c5cc(C(=O)NCCN)c(OC)cc5OC)CC4)ncn3)CC2)cc1C(=O)NCCN` [Compound 402], the EC50 was over 1000 µg/mL in data set [3] (human RBC, 1 hour at 37° C.); 5520 nM with Unfractionated heparin; 5810 nM with enoxaparin; 3180 nM in the data set with tinzaparin; 5860 nM in the data set with fondaparinux. Also, the figures for the EC50 at 1 h in data set [1] and in data set [2] were 864 µg/mL (≈ 1000 µM) and 753 µg/mL (≈ 875 µM), respectively.
Take `COc1cc(OC)c(C(=O)N[C@H]2CC[C@@H](NC(=O)c3cc(C(=O)N[C@H]4CC[C@@H](NC(=O)c5cc(C(=O)NCCCN)c(OC)cc5OC)CC4)c(OC)cc3OC)CC2)cc1C(=O)NCCCN` [Compound 404]: the concentration for a half-maximal effect (EC50) at 1 h in data set [1] is over 1000 µg/mL; in data set [2], 1100 µg/mL (≈ 1160 µM). Moreover, the EC50 with Unfractionated heparin is 2570 nM; with enoxaparin, 350 nM; with tinzaparin, 445 nM; in the data set on fondaparinux, 325 nM.
With `COc1cc(OC)c(C(=O)N[C@H]2CC[C@H](NC(=O)c3cc(C(=O)N[C@H]4CC[C@H](NC(=O)c5cc(C(=O)NCCCN)c(OC)cc5OC)CC4)c(OC)cc3OC)CC2)cc1C(=O)NCCCN` [Compound 406], the EC50 in data set [3] (human RBC, 1 hour at 37° C.) is 12.1 µg/mL (≈ 12.8 µM); in the data set with Unfractionated heparin it was 2460 nM; in the data set with enoxaparin, 299 nM; in the data set on tinzaparin it was 436 nM; in the data set with fondaparinux, 113 nM. The EC50 at 1 h in data set [1] was determined as 209 µg/mL (≈ 220 µM); in data set [2] it was 215 µg/mL (≈ 227 µM).
As to `COc1cc(OC)c(C(=O)Nc2ccc(NC(=O)c3cc(C(=O)NCCN(C)C)c(OCCCCCN)cc3OCCCCCN)cc2)cc1C(=O)Nc1ccc(NC(=O)c2cc(C(=O)NCCN(C)C)c(OCCCCCN)cc2OCCCCCN)cc1` [Compound 410], the EC50 in data set [3] is over 1000 µg/mL; in the data set on Unfractionated heparin, 640 nM; with enoxaparin it was 56 nM; with tinzaparin, 68 nM; in the data set on fondaparinux, 41 nM. Moreover, the EC50 at 1 h in data set [1] is 250 µg/mL (≈ 200 µM); in data set [2], 97.5 µg/mL (≈ 78.1 µM).
With `COc1cc(OC)c(C(=O)Nc2ccc(NC(=O)c3ccc(OCCCCCN)cc3OCCCCCN)cc2)cc1C(=O)Nc1ccc(NC(=O)c2ccc(OCCCCCN)cc2OCCCCCN)cc1` [Compound 411], the EC50 is over 1000 µg/mL in data set [3] (human RBC, 1 hour at 37° C.); 1150 nM with Unfractionated heparin; 96 nM with enoxaparin; 123 nM with tinzaparin; 61 nM in the data set with fondaparinux. The concentration giving a half-maximal response (EC50) at 1 h came to 590 µg/mL (≈ 579 µM) in data set [1] and 86 µg/mL (≈ 84.4 µM) in data set [2]. Besides, in the data set with fondaparinux, the “Potent LMWH-antagonists with superior anti-fondaparinux activity (summary)” value is reported as “superior anti-fondaparinux activity”.
